Tests used:
[1] = Cytotoxicity in SH-SY5Y cells (MTT); format: cell-based; conditions: human, SH-SY5Y neuronal cells, concentration reducing cell viability to 50% of control
Protocol: So, to study the neuroprotectant potential of β-diketones in the SH-SY5Y cell line, we firstly need to determine their cytotoxicity in the same cellular model. […] In addition to that, within each series, the introduction of a second fluorine atom in the left-hand side phenyl ring decreases also the cytotoxicity.
SH-SY5Y cells were seeded into 96-well plates at a density of 5 × 10^3 cells/well and grown in the incubator for 24 h. All compounds tested were dissolved and eventually further diluted in dimethylsulfoxide (DMSO). After overnight incubation, the cells were treated with different test concentrations (5, 10, 20, 50, 100, 150, 200 µM) in a final volume of 200 µL with four replicates each. […] Cell proliferation or viability was measured using the 3-(4,5-dimethylthiazol-2-yl)-2,5-diphenyl tetrazolium bromide (MTT) assay. After 24 h, 20 µL of MTT (5 mg/mL) was added to each well and the plate was incubated at 37 °C in the dark for 2 h. Supernatants were removed and the formazan crystals were solubilized in DMSO (200 µL/well), under 10 min shaking at room temperature. The reduction of MTT was quantified by absorbance at 570 nm Varioskan microplate reader (Thermo Fisher Scientific, Vantaa, Finland). Effects of the test compounds on cell viability were calculated using cells treated with vehicle as control. The data were subjected to linear regression analysis and the regression lines were plotted for the best fit. The IC50 (inhibition of cell viability) concentrations were calculated using the respective dose-response curves.

SH-SY5Y cells = experiment: Mitochondrial membrane potential by flow cytometry (JC-1) in SH-SY5Y cells under H2O2; format: cell-based, human; conditions: 7b for 24 h, then 400 µM H2O2 for 4 h, JC-1 flow cytometry
Protocol: To confirm this MMP recovery results, flow cytometry experiments were carried out with compound 7b and SH-SY5Y cells. Cells were treated with 7b for 24 h and then were exposed to 400 µM H2O2 for 4 h. JC-1 was used as fluorescence indicator of MMP state. In flow cytometry studies of MMP, JC-1 is excited at 488 nm wavelength. Both JC-1 aggregates and monomers show green fluorescence (peak emission at 527 nm) measured in the FL1 channel. […] Thus, healthy non-apoptotic cells are detected in both FL1 and FL2 channels, while cells with disrupted mitochondrial function show fluorescence in FL1 channel but reduced FL2 intensity. […] From these flow cytometry experiments, we can confirm that after compound 7b treatment there is a significant MMP recovery in SH-SY5Y cells under oxidative stress pressure.
For MMP flow cytometry studies, 10^5 SH-SY5Y cells were seeded in 6 well plates. After 24 h, cells were treated with test compound and incubated for other 24 h. After the treatment period, cells were exposed to H2O2 for 4 h. Then, cells were washed twice with Hanks buffer and stained with 5 µM JC-1 in culture media in dark, in a CO2 incubator at 37 °C for 20 min. After the staining period, cells were washed three times with Hanks buffer, collected and resuspended in 500 µL culture media. Data were obtained and analyzed using an Accuri C6 flow cytometer (BD Biosciences, Ann Arbour, MI, USA). […]

Row | SMILES | IC50 at 24 h [1] | FLA-1/FLA-2 ratio (SH-SY5Y cells)
1 | O=C(/C=C(O)/C=C/c1ccc(O)c(F)c1F)C(F)(F)F [Compound 7b, (3Z,5E)-6-(2,3-Difluoro-4-hydroxyphenyl)-1,1,1-trifluoro-4-hydroxyhexa-3,5-dien-2-one] | 200 ± 17.1 µM | significant reduction of that ratio
2 | O=C(/C=C(O)/C=C/c1cc(F)c(O)cc1F)C(F)(F)F [Compound 6b, (3Z,5E)-6-(2,5-difluoro-4-hydroxyphenyl)-1,1,1-trifluoro-4-hydroxyhexa-3,5-dien-2-one] | 187 ± 13.2 µM | –

Reference: article PMC6222706, “Evaluation of the Antioxidant and Neuroprotectant Activities of New Asymmetrical 1,3-Diketones” (Molecules : A Journal of Synthetic Chemistry and Natural …, 2018)
